Source: PMC7851594 (Genome Biology and Evolution, 2020)

What was measured:
drT2R3a [1] = biological target: T1, drT2R3a (Danio rerio, UniProt Q2AB30); type: cell-based
T1 sequence (Q2AB30 1-313): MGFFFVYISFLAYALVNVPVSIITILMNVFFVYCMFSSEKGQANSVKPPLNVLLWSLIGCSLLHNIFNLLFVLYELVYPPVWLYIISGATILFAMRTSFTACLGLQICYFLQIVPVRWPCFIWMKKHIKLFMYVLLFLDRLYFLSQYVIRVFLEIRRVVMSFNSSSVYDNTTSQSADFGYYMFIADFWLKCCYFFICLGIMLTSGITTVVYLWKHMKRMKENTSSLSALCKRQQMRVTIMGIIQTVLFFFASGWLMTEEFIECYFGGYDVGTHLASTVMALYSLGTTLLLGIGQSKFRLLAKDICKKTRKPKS

drT2R3a [2] = biological target: T1, drT2R3a; type: cell-based; remark: listed apart in the source

Row | SMILES | EC50 (drT2R3a [1]) [µM] | IC50 (drT2R3a [2]) [µM]
1 | CC[N+](CC)(CC(=O)Nc1c(C)cccc1C)Cc1ccccc1 [DB, Denatonium benzoate] | 230 ± 20 | 
2 | O=C1NS(=O)(=O)c2ccccc21 [saccharin] |  | 920 ± 280
